Test results published in EP1077967B1, “BIPHENYL OXO-ACETIC ACIDS USEFUL IN THE TREATMENT OF INSULIN RESISTANCE AND HYPERGLYCEMIA” (Wyeth, priority 1998, dated 1999).
Where a name gives a salt, the structure may show the parent alone.

target: T1, Human recombinant PTP1B (Homo sapiens, UniProt P18031); assay: Inhibition of tri-phosphorylated insulin receptor dodecaphosphopeptide dephosphorylation by hPTP1B (malachite green); type: biochemical; details: not given
T1 construct: made in house
T1 sequence (P18031 1-435): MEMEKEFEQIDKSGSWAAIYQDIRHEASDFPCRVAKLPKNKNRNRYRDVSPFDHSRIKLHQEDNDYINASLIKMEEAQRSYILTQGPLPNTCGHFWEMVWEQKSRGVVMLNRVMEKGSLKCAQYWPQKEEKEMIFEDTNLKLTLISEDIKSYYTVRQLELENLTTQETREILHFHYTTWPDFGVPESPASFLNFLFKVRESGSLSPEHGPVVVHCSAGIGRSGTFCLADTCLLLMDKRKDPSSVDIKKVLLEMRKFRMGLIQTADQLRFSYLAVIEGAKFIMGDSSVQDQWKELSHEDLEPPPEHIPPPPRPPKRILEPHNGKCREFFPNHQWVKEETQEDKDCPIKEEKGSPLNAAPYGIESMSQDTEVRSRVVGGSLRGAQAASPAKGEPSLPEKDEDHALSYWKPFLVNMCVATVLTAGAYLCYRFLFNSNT

Compared with `O=C(c1ccccc1)c1oc2ccccc2c1-c1ccc(-c2ccc(O[C@H](Cc3ccccc3)C(=O)O)c([N+](=O)[O-])c2)cc1` [Example 66, (2R)-2-[4'-(2-Benzoyl-benzofuarn-3-yl)-3-nitro-biphenyl-4-yloxy]-3-phenyl-propionic acid], `O=C(O)[C@@H](Cc1ccccc1)Oc1ccc(-c2ccc(-c3c(Cc4ccccc4)oc4ccccc34)cc2)cc1[N+](=O)[O-]` [Example 68, (2R)-2-[4'-(2-Benzyl-benzofuarn-3-yl)-3-nitro-biphenyl-4-yloxy]-3-phenyl-propionic acid] is 3.4-fold lower in IC50: 788 nM for the first, 231 nM for the second.

same assay, conditions: compound at 1 uM

`O=C(O)[C@@H](Cc1ccccc1)Oc1ccc(-c2ccc(-c3nc4cccnc4n3Cc3ccccc3)cc2)cc1` [Example 69, (2R)-2-[4'-(3-Benzyl-3H-imidazol[4,5-b]pyridin-2-yl)-biphenyl-4-yloxy]-3-phenyl-propionic acid sodium salt] was tested, and the “change of PTP1B activity (percent of phosphatase control)” value was -20 (1 uM).

same assay, conditions: compound at 2.5 uM; read-out: change of PTP1B activity (percent of phosphatase control)

Molecule `COC(=O)[C@H](Cc1ccccc1)Oc1ccc(-c2ccc(-c3c(Cc4ccccc4)oc4ccccc34)cc2)cc1` [Example 23, (2S)-2-[4'-(2-Benzyl-benzofuran-3-yl)-biphenyl-4-yloxy]-3-phenyl-propionic acid methyl ester] has an inhibition at 2.5 µM of 36%.

same assay, conditions: recombinant PTP1B, dodecaphosphopeptide substrate

`O=C(O)C(Cc1ccccc1)Oc1ccc(-c2ccc(-c3c(Cc4nccs4)sc4ccccc34)cc2)cc1` (centres unmarked) [Example 30, 3-Phenyl-2-[4'-(2-thiazole-2-ylmethyl-benzo[b]thiophene-3-yl)-biphenyl-4-yloxy]-propionic acid] and `O=C(O)[C@@H](Cc1ccccc1)Oc1ccc(-c2ccc(-c3c(Cc4ccccn4)sc4ccccc34)cc2)cc1` [Example 32, (2R)-3-phenyl-2-[4'-(2-pyridin-2-ylmethyl-benzo[b]thiophene-3-yl)-biphenyl-4-yloxy]-propionic acid sodium salt] are within 1.5-fold of each other in IC50: 1160 nM for the first, 1510 nM for the second.

Going from `O=C(O)[C@H](Cc1ccccc1)Oc1ccc(-c2ccc(-c3c(Cc4ccccc4)oc4cccnc34)cc2)cc1` [Example 31, (2S)-2-[4'-(2-Benzyl-furo[2,3]pyridin-3-yl)-biphenyl-4-yloxy]-3-phenyl-propionic acid] to `O=C(O)[C@H](CCc1ccccc1)Oc1ccc(-c2ccc(-c3c(Cc4ccccc4)oc4ccccc34)cc2)cc1` [Example 47, (2S)-2-[4'-(2-benzyl-benzofuran-3-yl)-biphenyl-4-yloxy]-4-phenyl-butyric acid], the IC50 falls from 590 nM to 225 nM (2.6-fold).

First: O=C(O)[C@@H](Cc1ccccc1)Oc1ccc(-c2ccc(-c3c(Cc4ccccn4)sc4ccccc34)cc2)cc1 [Example 33, (2R)-3-phenyl-2-[4'-(2-pyridin-2-ylmethyl-benzo[b]thiophene-3-yl)-biphenyl-4-yloxy]-propionic acid]
Second: Cc1sc(Cc2ccccc2)c(-c2ccc(-c3ccc(O[C@H](Cc4ccccc4)C(=O)O)cc3)cc2)c1C [Example 64, (2R)-2-[4'-(2-Benzyl-4,5-dimethyl-thiophen-3-yl)-biphenyl-4-yloxy]-3-phenyl-propionic acid]
The IC50 of the first is 3-fold higher: 1550 nM for the first, 512 nM for the second. The second is the more potent here.

Compared with `Oc1ccc(-c2ccc(-c3c(Cc4ccccc4)sc4ccccc34)cc2)cc1Br` [Example 34, 4'-(2-Benzyl-benzo[b]thiophen-3-yl)-3-bromo-biphenyl-4-ol], `O=C(O)COc1ccc(-c2ccc(-c3c(Cc4ccccc4)sc4ccccc34)cc2)cc1Br` [Example 40, [4'-(2-Benzyl-benzo[b]thiophene-3-yl)-3-bromo-biphenyl-4-yloxy]-acetic acid] is 3-fold lower in IC50: 1070 nM for the first, 362 nM for the second. The second is the more potent here.

First: Oc1c(Br)cc(-c2ccc(-c3c(Cc4ccccc4)sc4ccccc34)cc2)cc1Br [Example 35, 4'-(2-Benzyl-benzo[b]thiophen-3-yl)-3,5-dibromo-biphenyl-4-ol]
Second: O=C(O)COc1c(Br)cc(-c2ccc(-c3c(Cc4ccccc4)sc4ccccc34)cc2)cc1Br [Example 39, [4'-(2-Benzyl-benzo[b]thiophene-3-yl)-3,5-dibromo-biphenyl-4-yloxy]acetic acid]
The IC50 of the first is 4.3-fold higher: 454 nM for the first, 105 nM for the second.

Going from `O=C(O)[C@H](CCc1ccccc1)Oc1c(Br)cc(-c2ccc(-c3c(Cc4ccccc4)sc4ccccc34)cc2)cc1Br` [Example 41, (2S)-2-[4'-(2-Benzyl-benzo[b]-thiophen-3-yl)-3,5-dibromo-biphenyl-4-yloxy]-4-phenyl-butyric acid] to `O=C(O)c1ccccc1C(=O)NCC[C@@H](Oc1c(Br)cc(-c2ccc(-c3c(Cc4ccccc4)sc4ccccc34)cc2)cc1Br)C(=O)O` [Example 45, N-{(3R)-3-[4'-(2-benzyl-benzo[b]thiophen-3-yl)-3,5-dibromo-biphenyl-4-yloxy]-3-carboxy-propyl]-phthalamic acid], the IC50 falls from 290 nM to 181 nM (1.6-fold). The second is the more potent here.

`O=C(O)[C@@H](CCN1C(=O)c2ccccc2C1=O)Oc1c(Br)cc(-c2ccc(-c3c(Cc4ccccc4)sc4ccccc34)cc2)cc1Br` [Example 43, (2R)-2-[4'-(2-Benzyl-benzo[b]-thiophen-3-yl)-3,5-dibromo-biphenyl-4-yloxy]-4-(1,3-dioxo-1,3-dihydro-isoindol-2-yl)-butyric acid] and `COC(=O)[C@@H](CCNC(=O)c1ccccc1C(=O)O)Oc1c(Br)cc(-c2ccc(-c3c(Cc4ccccc4)sc4ccccc34)cc2)cc1Br` [Example 44, N-{(3R)-3-[4'-(2-benzyl-benzo[b]thiophen-3-yl)-3,5-dibromo-biphenyl-4-yloxy]-3-methoxycarbonyl-propyl]-phthalamic acid] are within 1.5-fold of each other in IC50: 44 nM for the first, 54 nM for the second.

First: O=C(O)C(Cc1ccccc1)Oc1ccc(-c2ccc(-c3c(Cc4ccccc4)sc4ccccc34)cc2)cc1-c1ccc(Cl)cc1 (centres unmarked) [Example 46, (2R')-2-[4-(2-benzyl-benzo[b]thiophene-3-yl)-4"-chloro-[1,1':3',1"]terphenyl-4'-yloxy]-3-phenyl-propionic acid]
Second: O=C(O)COc1ccc(-c2ccc(-c3c(Cc4ccccc4)sc4ccccc34)cc2)cc1-c1ccccc1 [Example 62]
The IC50 of the first is 2-fold lower: 52 nM for the first, 105 nM for the second.

Going from `O=C(O)[C@H](Cc1ccccc1)Oc1c(Br)cc(-c2ccc(-c3c(Cc4ccccc4)oc4ccccc34)cc2)cc1Br` [Example 49, (2S)-2-[4'-(2-benzyl-benzofuran-3-yl)-3,5-dibromo-biphenyl-4-yloxy]-3-phenyl-propionic acid] to `Cc1cc(-c2ccc(-c3c(Cc4ccccc4)oc4ccccc34)cc2)cc(C)c1O[C@H](Cc1ccccc1)C(=O)O` [Example 65, (2R)-2-[4'-(2-Benzyl-benzofuarn-3-yl)-3,5-dimethyl-biphenyl-4-yloxy]-3-phenyl-propionic acid], the IC50 rises from 38 nM to 74 nM (1.9-fold).

First: O=C(O)[C@H](Cc1ccccc1)Oc1ccc(-c2ccc(-c3c(Cc4ccccc4)oc4ccccc34)cc2)cc1Br [Example 50, (2S)-2-[4'-(2-benzyl-benzofuran-3-yl)-3-bromo-biphenyl-4-yloxy]-3-phenyl-propionic acid]
Second: O=C(O)C(Cc1ccccc1)Oc1ccc(-c2ccc(-c3c(C(O)c4ccccc4)oc4ccccc34)cc2)cc1[N+](=O)[O-] [Example 67, (2R)-2-{4'-[2-(Hydroxy-phenyl-methyl)-benzofuarn-3-yl)-3-nitro-biphenyl-4-yloxy]-3-phenyl-propionic acid]
The IC50 of the first is 1.8-fold lower: 56 nM for the first, 103 nM for the second. The first is the more potent here.

Going from `CC(C)C[C@@H](Oc1c(Br)cc(-c2ccc(-c3c(Cc4ccccc4)oc4ccccc34)cc2)cc1Br)C(=O)O` [Example 51, (2R)-2-[4'-(2-benzyl-benzofuran-3-yl)-3,5-dibromo-biphenyl-4-yloxy]-4-methyl-pentanoic acid] to `CC[C@H](Oc1c(Br)cc(-c2ccc(-c3c(Cc4ccccc4)oc4ccccc34)cc2)cc1Br)C(=O)O` [Example 53, (2S)-2-[4'-(2-benzyl-benzofuran-3-yl)-3,5-dibromo-biphenyl-4-yloxy]-butyric acid], the IC50 rises from 54 nM to 133 nM (2.5-fold).

First: CCCCC(Oc1c(Br)cc(-c2ccc(-c3c(Cc4ccccc4)oc4ccccc34)cc2)cc1Br)C(=O)O (centres unmarked) [Example 52, 2-[4'-(2-benzyl-benzofuran-3-yl)-3,5-dibromo-biphenyl-4-yloxy]-hexanoic acid]
Second: CCCCCC[C@H](Oc1c(Br)cc(-c2ccc(-c3c(Cc4ccccc4)oc4ccccc34)cc2)cc1Br)C(=O)O [Example 54, (2S)-2-[4'-(2-benzyl-benzofuran-3-yl)-3,5-dibromo-biphenyl-4-yloxy]-octanoic acid]
The IC50 of the first is 2.3-fold higher: 52 nM for the first, 23 nM for the second.

First: COc1ccc(-c2cc(-c3ccc(-c4c(Cc5ccccc5)sc5ccccc45)cc3)cc(Br)c2OCC(=O)O)cc1OC [Example 56, [4-(2-benzyl-benzo[b]-thiophen-3-yl)-5'-bromo-3",4"-dimethoxy[1,1';3',1"-terphenyl]-4'-yloxy]-acetic acid]
Second: COc1ccc(-c2cc(-c3ccc(-c4c(Cc5ccccc5)sc5ccccc45)cc3)ccc2OCC(=O)O)cc1OC [Example 60]
The IC50 of the first is 1.5-fold lower: 47 nM for the first, 71 nM for the second. The first is the more potent here.

`COc1cccc(-c2cc(-c3ccc(-c4c(Cc5ccccc5)sc5ccccc45)cc3)cc(Br)c2OCC(=O)O)c1` [Example 57] and `COc1cccc(-c2cc(-c3ccc(-c4c(Cc5ccccc5)sc5ccccc45)cc3)cc(-c3cccc(OC)c3)c2OCC(=O)O)c1` [Example 58] are within 1.5-fold of each other in IC50: 28 nM for the first, 25 nM for the second.

`COc1ccc(-c2cc(-c3ccc(-c4c(Cc5ccccc5)sc5ccccc45)cc3)ccc2OCC(=O)O)cc1` [Example 59] and `COc1cc(-c2cc(-c3ccc(-c4c(Cc5ccccc5)sc5ccccc45)cc3)ccc2OCC(=O)O)cc(OC)c1OC` [Example 61] are within 1.5-fold of each other in IC50: 80 nM for the first, 100 nM for the second.

With `O=C(O)c1ccc(COc2ccc(-c3ccc(-c4c(Cc5ccccc5)oc5ccccc45)cc3)cc2)cc1` [Example 63, 4-[4'-(2-benzyl-benzofuran-3-yl)-biphenyl-4-yloxymethyl]-benzoic acid] the IC50 was 369 nM.
